Key:
Assay in all cases: biochemical
Set-up in all cases: KINOMEscan competition binding panel (Eurofins DiscoverX), single concentration, % inhibition
Conditions in all cases: read-out: 7 at 1 µM % inhibition
TSSK3 = TSSK3 (Homo sapiens, UniProt Q96PN8)
Method in brief: (§1)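 KINOMEscan binding panel of >400 kinases, run by Eurofins DiscoverX, with compounds tested at a single concentration of 1 µM.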

EPHB6 = EPHB6 (Homo sapiens, UniProt O15197)
Method in brief: as §1

MYLK = MYLK (Homo sapiens, UniProt Q15746)
Method in brief: as §1

EGFR(L858R,T790M) = EGFR(L858R,T790M) (Homo sapiens, UniProt P00533, L858R/T790M)
Sequence of EGFR(L858R,T790M) (P00533 whole entry T790M/L858R): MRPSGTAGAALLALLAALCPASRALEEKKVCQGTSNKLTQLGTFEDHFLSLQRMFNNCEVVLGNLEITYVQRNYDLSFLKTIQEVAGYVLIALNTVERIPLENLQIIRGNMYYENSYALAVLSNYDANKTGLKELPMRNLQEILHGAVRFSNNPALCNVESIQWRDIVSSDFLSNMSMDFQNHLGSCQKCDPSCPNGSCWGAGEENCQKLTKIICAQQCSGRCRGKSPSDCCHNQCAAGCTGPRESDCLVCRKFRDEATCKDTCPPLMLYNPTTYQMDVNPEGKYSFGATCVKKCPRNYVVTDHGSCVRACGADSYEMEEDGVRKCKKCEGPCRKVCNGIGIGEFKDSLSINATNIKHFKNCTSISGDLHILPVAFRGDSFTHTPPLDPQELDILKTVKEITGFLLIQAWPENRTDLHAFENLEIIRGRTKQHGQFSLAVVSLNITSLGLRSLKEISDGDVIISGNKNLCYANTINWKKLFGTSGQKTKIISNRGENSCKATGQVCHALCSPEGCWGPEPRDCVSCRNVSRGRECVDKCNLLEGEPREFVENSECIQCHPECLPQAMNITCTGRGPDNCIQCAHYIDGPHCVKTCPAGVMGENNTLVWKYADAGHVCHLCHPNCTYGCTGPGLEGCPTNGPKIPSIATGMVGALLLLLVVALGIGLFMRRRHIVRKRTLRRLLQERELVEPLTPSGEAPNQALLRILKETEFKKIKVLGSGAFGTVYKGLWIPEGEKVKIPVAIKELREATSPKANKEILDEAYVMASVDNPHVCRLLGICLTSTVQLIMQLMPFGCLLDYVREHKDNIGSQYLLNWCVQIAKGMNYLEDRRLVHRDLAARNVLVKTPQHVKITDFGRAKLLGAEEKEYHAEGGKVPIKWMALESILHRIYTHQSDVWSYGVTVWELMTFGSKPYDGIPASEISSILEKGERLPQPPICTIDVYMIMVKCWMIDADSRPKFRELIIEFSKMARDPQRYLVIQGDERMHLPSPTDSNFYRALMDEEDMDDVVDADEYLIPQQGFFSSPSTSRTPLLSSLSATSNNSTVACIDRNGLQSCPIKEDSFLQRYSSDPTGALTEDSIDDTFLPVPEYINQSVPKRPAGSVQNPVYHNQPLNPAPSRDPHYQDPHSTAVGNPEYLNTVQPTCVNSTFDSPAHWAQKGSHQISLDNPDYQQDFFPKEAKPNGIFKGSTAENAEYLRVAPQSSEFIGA
Method in brief: as §1

CDC2L1 = target: T1, CDC2L1 (Homo sapiens, UniProt P21127)
T1 construct: gene CDK11B
Method in brief: as §1

EPHA4 = EPHA4 (Homo sapiens, UniProt P54764)
Method in brief: as §1

LOK = target: T2, LOK (Homo sapiens, UniProt O94804)
T2 construct: gene STK10
Method in brief: as §1

PAK4 = PAK4 (Homo sapiens, UniProt O96013)
Sequence of PAK4 (O96013 whole entry): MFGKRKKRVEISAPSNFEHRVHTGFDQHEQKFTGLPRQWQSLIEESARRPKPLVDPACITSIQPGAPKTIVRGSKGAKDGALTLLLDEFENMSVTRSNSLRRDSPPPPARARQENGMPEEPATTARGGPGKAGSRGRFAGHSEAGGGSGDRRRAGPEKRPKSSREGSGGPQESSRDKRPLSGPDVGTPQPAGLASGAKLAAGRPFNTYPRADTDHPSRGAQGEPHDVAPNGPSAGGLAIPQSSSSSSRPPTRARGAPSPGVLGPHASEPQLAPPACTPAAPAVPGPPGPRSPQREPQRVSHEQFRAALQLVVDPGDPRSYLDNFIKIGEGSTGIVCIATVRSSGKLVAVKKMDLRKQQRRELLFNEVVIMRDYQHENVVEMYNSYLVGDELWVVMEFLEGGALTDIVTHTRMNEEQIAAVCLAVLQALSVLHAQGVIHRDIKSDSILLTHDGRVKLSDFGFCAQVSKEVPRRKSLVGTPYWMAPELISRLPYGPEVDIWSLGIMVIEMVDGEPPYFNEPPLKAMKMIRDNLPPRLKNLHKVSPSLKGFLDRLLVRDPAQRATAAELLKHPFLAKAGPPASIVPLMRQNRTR
Method in brief: as §1

HIPK3 = HIPK3 (Homo sapiens, UniProt Q9H422)
Method in brief: as §1

SBK1 = SBK1 (Homo sapiens, UniProt Q52WX2)
Sequence of SBK1 (Q52WX2 whole entry): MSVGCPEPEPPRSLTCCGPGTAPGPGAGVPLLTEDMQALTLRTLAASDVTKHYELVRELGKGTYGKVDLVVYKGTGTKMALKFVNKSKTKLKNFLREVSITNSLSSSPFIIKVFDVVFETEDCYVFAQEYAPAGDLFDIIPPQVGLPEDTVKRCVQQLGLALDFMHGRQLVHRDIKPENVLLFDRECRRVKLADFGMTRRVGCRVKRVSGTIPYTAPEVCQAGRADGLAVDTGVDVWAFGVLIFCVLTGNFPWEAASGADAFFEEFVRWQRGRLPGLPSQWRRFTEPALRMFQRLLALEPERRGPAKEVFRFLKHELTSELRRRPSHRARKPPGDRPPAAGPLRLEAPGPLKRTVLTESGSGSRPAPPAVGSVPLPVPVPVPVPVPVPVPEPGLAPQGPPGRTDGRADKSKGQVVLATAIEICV
Method in brief: as §1

MKK7 = target: T3, MKK7 (Homo sapiens, UniProt O14733)
T3 construct: gene MAP2K7
Method in brief: as §1

[1] = target: T4, RPS6KA4(Kin.Dom.2-C-terminal) (Homo sapiens, UniProt O75676)
T4 construct: Kin.Dom.2-C-terminal
Method in brief: as §1

[2] = target: EGFR(L747-E749del, A750P) (Homo sapiens, UniProt P00533, A750P/DEL747-749)
Sequence of EGFR(L747-E749del, A750P) (P00533 with tags, fused parts or gaps DEL747-749/A750P): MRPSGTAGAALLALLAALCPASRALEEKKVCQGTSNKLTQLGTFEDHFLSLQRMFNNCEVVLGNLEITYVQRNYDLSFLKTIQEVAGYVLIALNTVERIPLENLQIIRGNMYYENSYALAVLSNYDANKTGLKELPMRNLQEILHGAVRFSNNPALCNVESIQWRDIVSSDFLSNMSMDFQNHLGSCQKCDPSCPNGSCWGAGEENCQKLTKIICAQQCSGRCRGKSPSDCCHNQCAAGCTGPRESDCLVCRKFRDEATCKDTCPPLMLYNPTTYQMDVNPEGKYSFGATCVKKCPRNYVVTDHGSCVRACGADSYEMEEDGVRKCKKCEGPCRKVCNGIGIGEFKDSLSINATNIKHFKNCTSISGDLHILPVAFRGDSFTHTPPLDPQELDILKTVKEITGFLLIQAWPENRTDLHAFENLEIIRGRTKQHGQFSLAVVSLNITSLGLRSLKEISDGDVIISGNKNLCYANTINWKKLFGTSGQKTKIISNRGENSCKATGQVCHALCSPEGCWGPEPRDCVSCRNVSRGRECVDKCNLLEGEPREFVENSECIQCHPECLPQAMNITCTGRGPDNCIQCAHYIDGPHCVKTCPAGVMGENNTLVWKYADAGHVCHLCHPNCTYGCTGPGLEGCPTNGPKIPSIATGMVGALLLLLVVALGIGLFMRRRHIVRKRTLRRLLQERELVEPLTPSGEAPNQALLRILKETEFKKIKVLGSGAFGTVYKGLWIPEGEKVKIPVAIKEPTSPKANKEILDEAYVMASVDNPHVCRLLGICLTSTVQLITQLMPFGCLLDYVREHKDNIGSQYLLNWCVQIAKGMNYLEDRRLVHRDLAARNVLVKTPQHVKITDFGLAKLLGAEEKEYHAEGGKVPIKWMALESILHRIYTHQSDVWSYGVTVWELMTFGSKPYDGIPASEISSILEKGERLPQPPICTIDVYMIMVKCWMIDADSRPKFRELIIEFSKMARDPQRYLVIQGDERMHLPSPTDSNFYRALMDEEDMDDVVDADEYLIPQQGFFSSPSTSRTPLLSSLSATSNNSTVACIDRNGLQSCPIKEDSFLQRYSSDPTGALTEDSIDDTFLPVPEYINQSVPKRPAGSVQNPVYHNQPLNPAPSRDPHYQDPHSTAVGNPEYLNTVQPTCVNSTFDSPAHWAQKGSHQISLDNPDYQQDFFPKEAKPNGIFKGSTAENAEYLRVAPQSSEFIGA
Method in brief: as §1

PCTK3 = target: T5, PCTK3 (Homo sapiens, UniProt Q07002)
T5 construct: gene CDK18
Method in brief: as §1

MEK6 = target: T6, MEK6 (Homo sapiens, UniProt P52564)
T6 construct: gene MAP2K6
Method in brief: as §1

RIOK3 = RIOK3 (Homo sapiens, UniProt O14730)
Method in brief: as §1

BUB1 = BUB1 (Homo sapiens, UniProt O43683)
Sequence of BUB1 (O43683 whole entry): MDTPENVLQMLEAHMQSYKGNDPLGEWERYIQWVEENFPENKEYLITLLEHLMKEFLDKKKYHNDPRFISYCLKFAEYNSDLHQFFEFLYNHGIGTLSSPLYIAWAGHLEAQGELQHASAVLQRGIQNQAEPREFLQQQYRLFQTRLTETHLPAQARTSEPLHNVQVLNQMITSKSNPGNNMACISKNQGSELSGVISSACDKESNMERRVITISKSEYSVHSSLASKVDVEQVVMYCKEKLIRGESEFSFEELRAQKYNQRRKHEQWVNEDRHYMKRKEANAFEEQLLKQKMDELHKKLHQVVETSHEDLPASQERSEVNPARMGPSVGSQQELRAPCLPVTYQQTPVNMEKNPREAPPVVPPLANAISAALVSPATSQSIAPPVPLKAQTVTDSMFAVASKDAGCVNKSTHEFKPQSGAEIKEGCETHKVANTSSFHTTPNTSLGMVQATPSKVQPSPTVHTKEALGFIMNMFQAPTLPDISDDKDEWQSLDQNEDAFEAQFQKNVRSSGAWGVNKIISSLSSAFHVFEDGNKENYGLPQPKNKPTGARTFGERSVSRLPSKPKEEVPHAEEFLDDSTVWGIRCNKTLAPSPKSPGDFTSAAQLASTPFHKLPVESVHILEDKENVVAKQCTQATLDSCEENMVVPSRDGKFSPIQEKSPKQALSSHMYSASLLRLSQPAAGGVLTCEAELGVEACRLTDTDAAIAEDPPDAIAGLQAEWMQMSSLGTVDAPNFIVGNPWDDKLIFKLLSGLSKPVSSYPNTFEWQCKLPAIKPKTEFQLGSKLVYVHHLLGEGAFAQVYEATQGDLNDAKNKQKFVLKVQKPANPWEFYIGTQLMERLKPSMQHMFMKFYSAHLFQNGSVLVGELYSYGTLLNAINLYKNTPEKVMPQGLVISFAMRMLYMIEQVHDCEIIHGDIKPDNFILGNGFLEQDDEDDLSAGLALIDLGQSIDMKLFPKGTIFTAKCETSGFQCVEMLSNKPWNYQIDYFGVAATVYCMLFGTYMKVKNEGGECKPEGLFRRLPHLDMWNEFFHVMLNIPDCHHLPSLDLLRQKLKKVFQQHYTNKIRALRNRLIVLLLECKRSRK
Method in brief: as §1

TYRO3 = TYRO3 (Homo sapiens, UniProt Q06418)
Method in brief: as §1

PAK2 = PAK2 (Homo sapiens, UniProt Q13177)
Method in brief: as §1

TRPM6 = TRPM6 (Homo sapiens, UniProt Q9BX84)
Method in brief: as §1

IRAK4 = IRAK4 (Homo sapiens, UniProt Q9NWZ3)
Method in brief: as §1

ERBB2 = ERBB2 (Homo sapiens, UniProt P04626)
Method in brief: as §1

LZK = target: T7, LZK (Homo sapiens, UniProt O43283)
T7 construct: gene MAP3K13
Method in brief: as §1

[3] = target: T8, RPS6KA5(Kin.Dom.2-C-terminal) (Homo sapiens, UniProt O75582)
T8 construct: Kin.Dom.2-C-terminal
Method in brief: as §1

Sequence of TSSK3 (Q96PN8 whole entry): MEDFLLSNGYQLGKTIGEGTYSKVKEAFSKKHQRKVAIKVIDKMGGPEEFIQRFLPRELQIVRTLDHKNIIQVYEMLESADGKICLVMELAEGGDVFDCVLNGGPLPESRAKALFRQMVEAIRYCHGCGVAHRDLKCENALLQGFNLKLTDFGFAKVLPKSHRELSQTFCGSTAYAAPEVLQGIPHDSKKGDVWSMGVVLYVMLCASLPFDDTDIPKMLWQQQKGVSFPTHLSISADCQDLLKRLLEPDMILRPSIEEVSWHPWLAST

SMILES: CNS(=O)(=O)c1ccc(N(C)C)c(Nc2ncnc3cc(OC)c(OC)cc23)c1 [compound 7, 3-((6,7-dimethoxyquinazolin-4-yl)amino)-4-(dimethylamino)-N-methylbenzenesulfonamide]
- inhibition at 1 µM (TSSK3): 0%
- inhibition at 1 µM (EPHB6): 15%
- inhibition at 1 µM (MYLK): 9%
- inhibition at 1 µM (EGFR(L858R,T790M)): 7%
- inhibition at 1 µM (CDC2L1): 0%
- inhibition at 1 µM (EPHA4): 0%
- inhibition at 1 µM (LOK): 44%
- inhibition at 1 µM (PAK4): 0%
- inhibition at 1 µM (HIPK3): 0%
- inhibition at 1 µM (SBK1): 29%
- inhibition at 1 µM (MKK7): 42%
- inhibition at 1 µM [1]: 9%
- inhibition at 1 µM [2]: 0%
- inhibition at 1 µM (PCTK3): 0%
- inhibition at 1 µM (MEK6): 0%
- inhibition at 1 µM (RIOK3): 0%
- inhibition at 1 µM (BUB1): 8%
- inhibition at 1 µM (TYRO3): 0%
- inhibition at 1 µM (PAK2): 0%
- inhibition at 1 µM (TRPM6): 25%
- inhibition at 1 µM (IRAK4): 56%
- inhibition at 1 µM (ERBB2): 0%
- inhibition at 1 µM (LZK): 23%
- inhibition at 1 µM [3]: 0%

Source: article PMC7180948, “New Insights into 4-Anilinoquinazolines as Inhibitors of Cardiac Troponin I–Interacting Kinase (TNNi3K)” (Molecules, 2020)
